Measurements published in PMC5688156, “The natural product carolacton inhibits folate-dependent C1 metabolism by targeting FolD/MTHFD” (Nature Communications, 2017).

Legend:
ecFolD = target: T1, ecFolD (Escherichia coli, UniProt P24186); assay: SPR binding to ecFolD; set-up: species or system E. coli
T1 construct: His-tag (TEV-cleavable, vector pHis-TEV); made in house; host or cells: E. coli BL21 (DE3)
Description: (§1) All surface plasmon resonance (SPR) experiments described in this study were performed on a Biacore X100 system. Different FolDs with or without His-tag were coupled on CM5 sensor chips (GE Healthcare) by the amine coupling method using a kit from GE Healthcare Life Sciences (Freiburg, Germany). A pH scouting process was performed before protein immobilization to test the most appropriate buffer and the protein concentration for protein coupling. Finally, 20 μg/mL of ecFolD in 10 mM maleate buffer (pH 6.8), 30 μg/mL of ecFolD Q98H in 10 mM maleate buffer (pH 6.3), 40 μg/mL of ecFolD K54N in 10 mM maleate buffer (pH 5.8), 20 μg/mL of spFolD in 10 mM maleate buffer (pH 6.0) and 15 μg/mL of MTHFD2 (His-tag cleaved) in 10 mM maleate buffer (pH 6.8) were used for coupling. In the protein immobilization procedure, the contact time was calculated based on the pH scouting results to achieve ~3000–5000 relative resonance units (RU). The buffer used in the SPR assays was 1× HBS-P buffer (10 mM HEPES pH 7.4, 150 mM NaCl, 0.05% Tween 20). The 1 mM stock solution of carolacton was prepared in 1× HBS-P buffer and diluted to different concentration ranges by two-fold serial dilution. In the SPR assay, the association time was 180 s and the dissociation time was 600 s. Data analysis was performed using the Biacore evaluation software. […]

ecFolD K54N = target: T2, ecFolD K54N (Escherichia coli, UniProt P24186, K54N); assay: SPR binding to ecFolD K54N; set-up: species or system E. coli; details: K54N mutant
T2 construct: His-tag (TEV-cleavable, vector pHis-TEV); made in house; host or cells: E. coli BL21 (DE3)
Description: as §1

KB-3.1 = assay: Cytotoxicity screening, KB-3.1 (MTT); assay type: cell-based, human; details: for EC50: 5 d treatment, MTT
Description: Half maximal effective concentrations (EC50) on human cancer cell lines were determined as described elsewhere. Human cancer cell lines were maintained as recommended by the depositor (German Collection of Microorganisms and Cell Cultures, DSMZ) and were treated for 5 d with carolacton in serial dilution. The viability of adherent cell types, HCT-116 (ACC 581), KB-3.1 (ACC-158) and KB-V.1 (ACC-149) was assessed by the addition of MTT tetrazolium salt and absorbance measurement at 570 nm. Histiocytic lymphoma U-937 cells (ACC-5) were maintained in RPMI 1640 medium and transferred into folate-free medium prior to the assay. Cell viability was determined by measuring alamar blue fluorescence emission at 590 nm. The values were referenced and EC50 values were determined by sigmoidal curve fitting. The cell lines KB-3.1 and KB-V.1 are originally derived from HeLa, whereas the latter is an MDR subclone of KB-3.1. They were used to directly compare the activity of carolacton on an mdr1 overexpressing and a sensitive cell line.

L929 mouse cells = system: L929 mouse cells; set-up: method as in doi:10.1002/ejoc.200901126, PMID 20659313; details: cited from earlier work

SMILES: CO[C@H](CC(=O)O)[C@@H](C)C(=O)[C@H](C)/C=C(\C)[C@H]1OC(=O)[C@H](O)[C@H](O)/C=C/[C@H](C)CCC[C@@H]1C [carolacton]
- Kd (ecFolD): 0.01 µM
- koff (ecFolD): 0.01 s⁻¹
- binding by SPR (ecFolD K54N): does not bind
- EC50 (KB-3.1): 11.3 ± 3.6 µM
- EC50 (KB-3.1; Homo sapiens, KB 3-1, 120 h): 11 µM
- Maximum inhibition (KB-3.1; inhibition of cell growth, 5 d): >80%
- acute toxicity to L929 mouse cells (L929 mouse cells): no acute toxicity
